Experiment: Evaluation of stability in liver microsome
Details: mouse liver microsome 0.25 mg/mL, 1 μM test compound, 37° C. for 30 minutes

Structure (SMILES)	Remaining (%)
COCCN(C)CC#Cc1c(C(=O)Nc2ccc(COC)cc2)c2c(N)ncnc2n1C1(C)CC1 [Example 197, 4-amino-6-(3-((2-methoxyethyl)(methyl)amino)prob-1-yn-1-yl)-N-(4-(methoxymethyl)phenyl)-7-(1-methylcyclopropyl)-7H-pyrrolo[2,3-d]pyrimidine-5-carboxamide]	52
COCc1ccc(NC(=O)c2c(-c3ccc(F)nc3)n(C3(C)CC3)c3ncnc(N)c23)cc1 [Example 190, 4-amino-6-(6-fluoropyridin-3-yl)-N-(4-(methoxymethyl)phenyl)-7-(1-methylcyclopropyl)-7H-pyrrolo[2,3-d]pyrimidine-5-carboxamide]	58
CC(C)(C)n1cc(C(=O)Nc2ccc(-c3cc[nH]n3)cc2)c2c(N)ncnc21 [Example 80, N-(4-(1H-pyrazol-3-yl)phenyl)-4-amino-7-(tert-butyl)-7H-pyrrolo[2,3-d]pyrimidine-5-carboxamide]	50
COCc1ccc(NC(=O)c2c(C#Cc3ccccc3OC)n(C3(C)CC3)c3ncnc(N)c23)cc1 [Example 113, 4-amino-N-(4-(methoxymethyl)phenyl)-6-((2-methoxyphenyl)ethynyl)-7-(1-methylcyclopropyl)-7H-pyrrolo[2,3-d]pyrimidine-5-carboxamide]	79
COCc1ccc(NC(=O)c2c(C#Cc3ccccc3)n(C3(C)CC3)c3ncnc(N)c23)cc1 [Example 162, 4-amino-N-(4-(methoxymethyl)phenyl)-7-(1-methylcyclopropyl)-6-(phenylethynyl)-7H-pyrrolo[2,3-d]pyrimidine-5-carboxamide]	76
COCc1ccc(NC(=O)c2c(C#Cc3cnn(C)c3C)n(C3(C)CC3)c3ncnc(N)c23)cc1 [Example 182, 4-amino-6-((1,5-dimethyl-1H-pyrazol-4-yl)ethynyl)-N-(4-(methoxymethyl)phenyl)-7-(1-methylcyclopropyl)-7H-pyrrolo[2,3-d]pyrimidine-5-carboxamide]	61
COCc1ccc(NC(=O)c2cn(C3(C)CC3)c3ncnc(N)c23)cc1F [Example 48, 4-amino-N-(3-fluoro-4-(methoxymethyl)phenyl)-7-(1-methylcyclopropyl)-7H-pyrrolo[2,3-d]pyrimidine-5-carboxamide]	58
COCc1ccc(NC(=O)c2c(OCC3CCOCC3)n(C3(C)CC3)c3ncnc(N)c23)cc1 [Example 141, 4-amino-N-(4-(methoxymethyl)phenyl)-7-(1-methylcyclopropyl)-6-((tetrahydro-2H-pyran-4-yl)methoxy)-7H-pyrrolo[2,3-d]pyrimidine-5-carboxamide]	68
COCc1ccc(NC(=O)c2c(-c3ccc(CO)nc3)n(C3(C)CC3)c3ncnc(N)c23)cc1 [Example 179, 4-amino-6-(6-(hydroxymethyl)pyridin-3-yl)-N-(4-(methoxymethyl)phenyl)-7-(1-methylcyclopropyl)-7H-pyrrolo[2,3-d]pyrimidine-5-carboxamide]	85
COCc1ccc(NC(=O)c2c(-c3ccc(CO)cc3)n(C3(C)CC3)c3ncnc(N)c23)cc1 [Example 145, 4-amino-6-(4-(hydroxymethyl)phenyl)-N-(4-(methoxymethyl)phenyl)-7-(1-methylcyclopropyl)-7H-pyrrolo[2,3-d]pyrimidine-5-carboxamide]	72
COCc1ccc(NC(=O)c2c(C#Cc3ccc(OC)cc3)n(C3(C)CC3)c3ncnc(N)c23)cc1 [Example 165, 4-amino-N-(4-(methoxymethyl)phenyl)-6-((4-methoxypheny)ethynyl)-7-(1-methylcyclopropyl)-7H-pyrrolo[2,3-d]pyrimidine-5-carboxamide]	90
COCc1ccc(NC(=O)c2cn(C3(CF)CC3)c3ncnc(N)c23)cc1 [Example 45, 4-amino-7-(1-(fluoromethyl)cyclopropyl)-N-(4-(methoxymethyl)phenyl)-7H-pyrrolo[2,3-d]pyrimidine-5-carboxamide]	66
CCOc1c(C(=O)Nc2ccc(COC)cc2)c2c(N)ncnc2n1C1(C)CC1 [Example 127, 4-amino-6-ethoxy-N-(4-(methoxymethyl)phenyl)-7-(1-methylcyclopropyl)-7H-pyrrolo[2,3-d]pyrimidine-5-carboxamide]	70
COCc1ccc(NC(=O)c2c(C#Cc3c[nH]c4ccccc34)n(C3(C)CC3)c3ncnc(N)c23)cc1 [Example 121, 6-((1H-indol-3-yl)ethynyl)-4-amino-N-(4-(methoxymethyl)phenyl)-7-(1-methylcyclopropyl)-7H-pyrrolo[2,3-d]pyrimidine-5-carboxamide]	74
COCc1ccc(NC(=O)c2c(OC[C@H]3CCCO3)n(C3(C)CC3)c3ncnc(N)c23)cc1 [Example 89, (R)-4-amino-N-[4-(methoxymethyl)phenyl]-7-(1-methylcyclopropyl)-6-((tetrahydrofuran-2-yl)methoxy)-7H-pyrrolo[2,3-d]pyrimidine-5-carboxamide]	69
COCc1ccc(NC(=O)c2cn(C3(C4CC4)CC3)c3ncnc(N)c23)cc1 [Example 49, 7-{[1,1-bi(cyclopropane)]-1-yl}-4-amino-N-(4-(methoxymethyl)phenyl)-7H-pyrrolo[2,3-d]pyrimidine-5-carboxamide]	67
[2H]C([2H])([2H])OCc1ccc(NC(=O)c2cn(C(C)(C)C)c3ncnc(N)c23)cc1 [Example 35, 4-amino-7-(tert-butyl)-N-(4-((methoxy-d3)-methyl)phenyl)-7H-pyrrolo[2,3-d]pyrimidine-5-carboxamide]	58
CCn1cc(C#Cc2c(C(=O)Nc3ccc(COC)cc3)c3c(N)ncnc3n2C2(C)CC2)cn1 [Example 118, 4-amino-6-((1-ethyl-1H-pyrazol-4-yl)ethynyl)-N-(4-(methoxymethyl)phenyl)-7-(1-methylcyclopropyl)-7H-pyrrolo[2,3-d]pyrimidine-5-carboxamide]	73
CCOc1c(C(=O)Nc2ccc(-c3ccco3)cc2)c2c(N)ncnc2n1C1(C)CC1 [Example 116, 4-amino-6-ethoxy-N-(4-(furan-2-yl)phenyl)-7-(1-methylcyclopropyl)-7H-pyrrolo[2,3-d]pyrimidine-5-carboxamide]	55
COCc1ccc(NC(=O)c2cn(C3(C(F)F)CC3)c3ncnc(N)c23)cc1 [Example 46, 4-amino-7-(1-(difluoromethyl)cyclopropyl)-N-(4-(methoxymethyl)phenyl)-7H-pyrrolo[2,3-d]pyrimidine-5-carboxamide]	65

The remaining lines, values ahead:

Remaining (%)	Structure (SMILES)
57	COCc1ccc(NC(=O)c2c(C#CCC3CCOCC3)n(C3(C)CC3)c3ncnc(N)c23)cc1 [Example 152, 4-amino-N-(4-(methoxymethyl)phenyl)-7-(1-methylcyclopropyl)-6-(3-(tetrahydro-2H-pyran-4-yl)prop-1-yn-1-yl)-7H-pyrrolo[2,3-d]pyrimidine-5-carboxamide]
62	C=C(C)c1c(C(=O)Nc2ccc(COC)cc2)c2c(N)ncnc2n1C1(C)CC1 [Example 149, 4-amino-N-(4-(methoxymethyl)phenyl)-7-(1-methylcyclopropyl)-6-(prop-1-en-2-yl)-7H-pyrrolo[2,3-d]pyrimidine-5-carboxamide]
72	CCc1c(C(=O)Nc2ccc(COC)cc2)c2c(N)ncnc2n1C1(C)CC1 [Example 207, 4-amino-6-ethyl-N-(4-(methoxymethyl)phenyl)-7-(1-methylcyclopropyl)-7H-pyrrolo[2,3-d]pyrimidine-5-carboxamide]
79	C=Cc1c(C(=O)Nc2ccc(COC)cc2)c2c(N)ncnc2n1C1(C)CC1 [Example 65, 4-amino-N-(4-(methoxymethyl)phenyl)-7-(1-methylcyclopropyl)-6-vinyl-7H-pyrrolo[2,3-d]pyrimidine-5-carboxamide]
53	COCc1ccc(NC(=O)c2c(C#Cc3cnc[nH]3)n(C3(C)CC3)c3ncnc(N)c23)cc1 [Example 191, 6-((1H-imidazol-5-yl)ethynyl)-4-amino-N-(4-(methoxymethyl)phenyl)-7-(1-methylcyclopropyl)-7H-pyrrolo[2,3-d]pyrimidine-5-carboxamide]
56	COCc1ccc(NC(=O)c2c(Br)n(C3(C)CC3)c3ncnc(N)c23)cc1 [Example 55, 4-amino-6-bromo-N-[4-(methoxymethyl)phenyl]-7-(1-methylcyclopropyl)-7H-pyrrolo[2,3-d]pyrimidine-5-carboxamide]
62	COCc1ccc(NC(=O)c2c(Cl)n(C3(C)CC3)c3ncnc(N)c23)cc1 [Example 56, 4-amino-6-chloro-N-[4-(methoxymethyl)phenyl]-7-(1-methylcyclopropyl)-7H-pyrrolo[2,3-d]pyrimidine-5-carboxamide]
80	COCc1ccc(NC(=O)c2c(C#CCC3CCCCC3)n(C3(C)CC3)c3ncnc(N)c23)cc1 [Example 199, 4-amino-6-(3-cyclohexylprop-1-yn-1-yl)-N-(4-(methoxymethyl)phenyl)-7-(1-methylcyclopropyl)-7H-pyrrolo[2,3-d]pyrimidine-5-carboxamide]
52	COCc1ccc(NC(=O)c2c(C#CC(O)C3CC3)n(C3(C)CC3)c3ncnc(N)c23)cc1 (stereo not shown) [Example 104, 4-amino-6-(3-cyclopropyl-3-hydroxyprop-1-yn-1-yl)-N-(4-(methoxymethyl)phenyl)-7-(1-methylcyclopropyl)-7H-pyrrolo[2,3-d]pyrimidine-5-carboxamide]
60	COCc1ccc(NC(=O)c2c(C#Cc3cccnc3)n(C3(C)CC3)c3ncnc(N)c23)cc1 [Example 94, 4-amino-N-[4-(methoxymethyl)phenyl]-7-(1-methylcyclopropyl)-6-(pyridin-3-ylethynyl)-7H-pyrrolo[2,3-d]pyrimidine-5-carboxamide]
63	COCc1ccc(NC(=O)c2c(C#CC3CCOCC3)n(C3(C)CC3)c3ncnc(N)c23)cc1 [Example 87, 4-amino-N-[4-(methoxymethyl)phenyl]-7-(1-methylcyclopropyl)-6-((tetrahydro-2H-pyran-4-yl)ethynyl)-7H-pyrrolo[2,3-d]pyrimidine-5-carboxamide]
